Structures can show the parent of a compound that is named as a salt. Where two headings read alike, the source gives them in different places.
Key:
[1] = molecular target: T1, AII receptors (guinea pig adrenal gland cell surface membranes) (Cavia porcellus, UniProt Q9WV26); test: Test A: displacement of radiolabelled AII binding to cell surface membrane fraction (guinea pig adrenal gland)
T1 construct: from tissue; host or cells: guinea pig adrenal gland, cell surface membrane fraction
T1 sequence (Q9WV26 1-359): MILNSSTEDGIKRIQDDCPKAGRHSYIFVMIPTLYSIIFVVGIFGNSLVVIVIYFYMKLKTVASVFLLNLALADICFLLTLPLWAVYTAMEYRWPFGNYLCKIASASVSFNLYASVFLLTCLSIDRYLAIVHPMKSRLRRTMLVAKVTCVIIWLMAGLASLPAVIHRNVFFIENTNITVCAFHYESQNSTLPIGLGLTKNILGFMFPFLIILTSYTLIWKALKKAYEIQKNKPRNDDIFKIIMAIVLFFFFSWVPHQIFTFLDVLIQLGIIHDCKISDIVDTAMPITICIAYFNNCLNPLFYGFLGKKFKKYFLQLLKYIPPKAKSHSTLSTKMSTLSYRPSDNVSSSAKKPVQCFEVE
Experimental: The antagonism of one or more of the physiological actions of AII and, in particular, the antagonism of the interaction of AII with the receptors which mediate its effects on a target tissue, may be assessed using one or more of the following, routine laboratory procedures: Test A: This in vitro procedure involves the incubation of the test compound initially at a concentration of 100 micromolar (or less) in a buffered mixture containing fixed concentrations of radiolabelled AII and a cell surface membrane fraction prepared from a suitable angiotensin target tissue. In this test, the source of cell surface membranes is the guinea pig adrenal gland which is well known to respond to AII. Interaction of the radiolabelled AII with its receptors (assessed as radiolabel bound to the particulate membrane fraction following removal of unbound radiolabel by a rapid filtration procedure such as is standard in such studies) is antagonized by compounds which also bind to the membrane receptor sites and the degree of antagonism (observed in the test as displacement of membrane-bound radioactivity) is determined readily by comparing the receptor-bound radioactivity in the presence of the test compound at the specified test concentration with a control value determined in the absence of the test compound. […]

[2] = test system: angiotensin II-induced pressor responses; test: Test C: in vivo antagonism of angiotensin II-induced pressor responses in terminally-anaesthetised or conscious rats; conditions: Rattus norvegicus, iv, i.v. administration
From the text: The antagonism of one or more of the physiological actions of AII and, in particular, the antagonism of the interaction of AII with the receptors which mediate its effects on a target tissue, may be assessed using one or more of the following, routine laboratory procedures: Test C: This in vivo test involves using terminally-anaesthetised or conscious rats in which an arterial catheter has been implanted under anaesthesia for the measurement of changes in blood pressure. The AII antagonistic effects of the test compound following oral or parenteral administration, are assessed against angiotensin II-induced pressor responses. To ensure that the effect is specific, the effect of the test compound on vasopressin-induced pressor responses may also be determined in the same preparation.

| Compound | IC50 ([1]; average, read-out: IC50 (concentration for 50% displacement of radiolabelled AII binding), average) | ED50 [2] | IC50 ([1]; read-out: IC50 (concentration for 50% displacement of radiolabelled AII binding)) |
| --- | --- | --- | --- |
| Cc1cc(OCc2ccc(-c3ccccc3-c3nnn[nH]3)cc2)c2ccccc2n1.Cl [2-methyl-4-[(2'-(1H-tetrazol-5-yl)biphenyl-4-yl)methoxy]quinoline hydrochloride] | 17 nM | 0.5 mg/kg | – |
| Cc1cc(OCc2ccc(-c3ccccc3-c3nn[nH]n3)cc2)c2c(n1)CCCC2 [2-methyl-5,6,7,8-tetrahydro-4-[(2'-(1H-tetrazol-5-yl)methoxy]quinoline hydrochloride] | – | 0.28 mg/kg | 30 nM |
